Read-outs that look alike come from different tables or passages of the source. Blank lines part the entries; values can stand above or below the compound they belong to.
Assays:
porcine retinal arteries = test: small vessel myography of wall tension in isolated retinal artery segments pre-contracted with U-46619; format: cell-based; settings: for peak wall tension after U-46619: 10^−6 M; for vasodilation in a single representative experiment, percent of maximum contraction / mean dilation as percentage of the maximum contraction induced by U-46619: single dose of 10^−3 M; for vasodilation in a single representative experiment, percent of maximum contraction: pre-contracted with 10^−6 M U-46619; for mean dilation as percentage of the maximum contraction induced by U-46619: mean ± SEM; for EC50: Sus scrofa, best fit to concentration-response curves, arteries pre-contracted with 10^−6 M U-46619, read-out: mean EC50 of vasodilation; for wall tension reached after dilation: final level (slower phase for compound 4)
hCA IX = biological target: T1, hCA IX (Homo sapiens, UniProt Q16790); test: stopped flow CO2 hydrase assay, hCA IX; format: biochemical; settings: mean from 3 assays, errors ± 5%–10%
T1 construct: made in house

hCA II [1] = biological target: T2, hCA II (Homo sapiens, UniProt P00918); test: stopped flow CO2 hydrase assay, hCA II; format: biochemical; settings: mean from 3 assays, errors ± 5%–10%
T2 construct: made in house

hCA I [2] = biological target: T3, hCA I (Homo sapiens, UniProt P00915); test: stopped flow CO2 hydrase assay, hCA I; format: biochemical; settings: mean from 3 assays, errors ± 5%–10%
T3 construct: made in house
T3 sequence (P00915 whole entry): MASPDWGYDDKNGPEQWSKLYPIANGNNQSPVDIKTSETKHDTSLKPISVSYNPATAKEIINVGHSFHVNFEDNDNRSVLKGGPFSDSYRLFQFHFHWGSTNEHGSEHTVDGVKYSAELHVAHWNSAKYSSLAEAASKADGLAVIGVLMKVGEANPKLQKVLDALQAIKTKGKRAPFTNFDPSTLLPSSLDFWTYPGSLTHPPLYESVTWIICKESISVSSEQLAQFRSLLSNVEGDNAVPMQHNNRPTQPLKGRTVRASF

hCA IV = biological target: T4, hCA IV (Homo sapiens, UniProt P22748); test: stopped flow CO2 hydrase assay, hCA IV; format: biochemical; settings: mean from 3 assays, errors ± 5%–10%
T4 construct: made in house
T4 sequence (P22748 19-312): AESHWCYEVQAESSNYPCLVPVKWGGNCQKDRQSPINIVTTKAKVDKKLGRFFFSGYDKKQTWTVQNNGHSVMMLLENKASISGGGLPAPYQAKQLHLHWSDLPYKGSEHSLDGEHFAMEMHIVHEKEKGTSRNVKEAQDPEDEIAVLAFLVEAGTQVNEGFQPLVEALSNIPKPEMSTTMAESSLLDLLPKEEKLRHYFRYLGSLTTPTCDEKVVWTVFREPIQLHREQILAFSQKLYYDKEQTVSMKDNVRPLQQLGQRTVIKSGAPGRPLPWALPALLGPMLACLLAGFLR

hCA XII = biological target: T5, hCA XII (Homo sapiens, UniProt O43570); test: stopped flow CO2 hydrase assay, hCA XII; format: biochemical
T5 construct: made in house
T5 sequence (O43570 25-354): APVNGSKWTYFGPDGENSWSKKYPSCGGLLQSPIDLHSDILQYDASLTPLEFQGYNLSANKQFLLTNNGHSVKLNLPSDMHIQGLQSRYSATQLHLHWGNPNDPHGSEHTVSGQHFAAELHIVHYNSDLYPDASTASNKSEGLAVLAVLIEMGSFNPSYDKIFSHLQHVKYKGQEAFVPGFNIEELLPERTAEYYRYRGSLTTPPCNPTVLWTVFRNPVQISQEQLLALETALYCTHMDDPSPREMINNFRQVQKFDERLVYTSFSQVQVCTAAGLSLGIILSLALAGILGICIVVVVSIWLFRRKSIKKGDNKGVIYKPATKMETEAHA

hCA I [3] = biological target: T3, hCA I; settings: stopped flow; cited from earlier work
hCA II [4] = biological target: T2, hCA II; parameters: method as in PMID 16996620; settings: stopped flow; cited from earlier work

SMILES: CCCCC[C@H](O)/C=C/[C@@H]1[C@@H](C/C=C\CCCC(=O)O)[C@H]2CO[C@@H]1C2 [Compound U-46619, 9,11-dideoxy-9 α,11α methanoepoxy prostaglandin F2α, reference compound]
peak wall tension after U-46619 (porcine retinal arteries; Figure 2A, baseline 0.4 mN/mm): about 1.75 mN/mm | peak wall tension after U-46619 (porcine retinal arteries; Figure 3A, baseline 0.6 mN/mm): 2.4 mN/mm | peak wall tension after U-46619 (porcine retinal arteries; Figure 3B, baseline about 0.38 mN/mm): 1.63 mN/mm | peak wall tension after U-46619 (porcine retinal arteries; Figure 4A, baseline 1.54 mN/mm): 3.38 mN/mm | peak wall tension after U-46619 (porcine retinal arteries; Figure 4B, baseline 0.95 mN/mm): 2.21 mN/mm

SMILES: CCN[C@H]1C[C@H](C)S(=O)(=O)c2sc(S(N)(=O)=O)cc21 [Compound 2, Dorzolamide, reference compound]
vasodilation in a single representative experiment, percent of maximum contraction (porcine retinal arteries; one vessel): 33% | mean dilation as percentage of the maximum contraction induced by U-46619 (porcine retinal arteries): 69.7% ± 5.7%

SMILES: C#CCN(CC#C)CCc1ccc(S(N)(=O)=O)cc1 [Compound 3]
Ki (hCA IX): 0.0557 µM | Ki (hCA II [1]): 0.0058 µM | EC50 (porcine retinal arteries): 188 µM | vasodilation in a single representative experiment, percent of maximum contraction (porcine retinal arteries; one vessel): 91% | mean dilation as percentage of the maximum contraction induced by U-46619 (porcine retinal arteries): 102.2% ± 3.7% | Ki (hCA I [2]): 4.01 µM

SMILES: NS(=O)(=O)c1nnc(NS(=O)(=O)c2ccccc2)s1 [Compound 1, Benzolamide, reference compound]
final dilation when added after DZA dilation had reached a steady level (porcine retinal arteries; 10^−3 M BZA added on top of 10^−3 M DZA, one vessel (Figure 2B)): 100% | EC50 (porcine retinal arteries): 84.3 µM | vasodilation in a single representative experiment, percent of maximum contraction (porcine retinal arteries; one vessel): almost complete inhibition | mean dilation as percentage of the maximum contraction induced by U-46619 (porcine retinal arteries): 78.4% ± 8.5% | Ki (hCA IV): 0.012 µM

SMILES: C#CCNc1ccc2c(C)cc(=O)oc2c1 [Compound 6]
Ki (hCA IX): 0.474 µM | Ki (hCA II [1]): > 10 µM | EC50 (porcine retinal arteries): 101 µM | vasodilation in a single representative experiment, percent of maximum contraction (porcine retinal arteries; one vessel): 96.8% | mean dilation as percentage of the maximum contraction induced by U-46619 (porcine retinal arteries): 99.5% ± 1.2% | Ki (hCA I [2]): > 10 µM | Ki (hCA XII; mean from 3 assays, errors ± 5%–10%): 0.0445 µM

EC50 (porcine retinal arteries): 4.12 µM | times less effective than 4 against hCA XII (hCA XII; ratio of KI values versus compound 4): 12.9 times | Ki (hCA IV): 0.0764 µM
SMILES: C#CCOc1ccc2ccc(=O)oc2c1 [Compound 5]
Ki (hCA I [3]): > 10 µM | Ki (hCA II [4]): > 10 µM | wall tension reached after dilation (porcine retinal arteries; 10^−3 M, one vessel): 0.77 mN/mm | vasodilation in a single representative experiment, percent of maximum contraction (porcine retinal arteries; one vessel): 140% | mean dilation as percentage of the maximum contraction induced by U-46619 (porcine retinal arteries): 116.5% ± 1.7%

SMILES: C#CCOc1ccc2oc(=O)ccc2c1 [Compound 4]
wall tension after initial very fast phase of dilation (porcine retinal arteries; 10^−3 M, one vessel, peak constriction 1.63 mN/mm (Figure 3B)): about 0.66 mN/mm | wall tension reached after dilation (porcine retinal arteries; 10^−3 M, one vessel): about 0.36 mN/mm | EC50 (porcine retinal arteries): 134 µM | vasodilation in a single representative experiment, percent of maximum contraction (porcine retinal arteries; one vessel): 101% | mean dilation as percentage of the maximum contraction induced by U-46619 (porcine retinal arteries): 98.8% ± 6.1%

Reference: paper PMC6387369, “Carbonic Anhydrase Inhibitors of Different Structures Dilate Pre-Contracted Porcine Retinal Arteries” (International Journal of Molecular Sciences, 2019)
